Source: article PMC8406298, “Discovery of Fungus-Specific Targets and Inhibitors Using Chemical Phenotyping of Pathogenic Spore Germination” (mBio, 2021)

What was measured:
[1] = tested on: normal human dermal fibroblasts (NHDF) cells; assay: Fibroblast cytotoxicity (CellTiter-Glo); assay type: cell-based; details: 10 µM
Experimental: PrimaPure normal human dermal fibroblasts (NHDF) cells (Genlatis PH10605A) were cultured and passaged in fibroblast growth medium (Genlatis PM116500) according to the manufacturer’s protocol. NHDF cells (1 × 10^3 per well) were plated in a 384-well plate in cell culture medium. The cells were incubated with each compound of interest at 10 μM concentration for 72 h at 37°C and 5% CO2. Following treatment, CellTiter-Glo (Promega) reagent was used to assay ATP-dependent luminescence and thus provide a measure of cell viability. […] For cytotoxicity dose-response curves (Fig. 4C and Fig. 5C), compounds were titrated from 80 μM to 0.5 μM in duplicates.

[2] = tested on: Cryptococcus yeast (CHY3833 and CHY3836); assay: Yeast replication secondary screen (OD600); assay type: cell-based, Cryptococcus neoformans serotype D (deneoformans); details: 10 μM, 12 h at 30°C
Experimental: (ii) Yeast replication. CHY3833 and CHY3836 were each grown in YPD liquid overnight at 30°C to saturation and then resuspended in 0.5× YPD at an OD600 of 0.005. Strains were aliquoted into 384-well plates with inhibitors and grown for 12 h at 30°C at […] before OD600 readings were taken. Compounds that caused a >10% decrease in growth were considered yeast growth inhibitors.

Structure (SMILES)	Cytotoxicity: Relative Cell Viability (% of Negative Control) [1]	Yeast Inhibition: % Inhibition [2] [%]
O=C(Nc1cccc(C(F)(F)F)c1)C1=Cc2ccccc2OC1 [compound 1475928]	58.1 % of Negative Control	77.9
O=C(NCCc1ccccc1)c1n[nH]c2ccccc12 [compound 1505880]	87.7 % of Negative Control	77.5
Cc1c(-n2c(-c3ccccc3)csc2=NC(=O)c2ccccc2)c(=O)n(-c2ccccc2)n1C [compound 1528700]	93.1 % of Negative Control	-8.8
CCCCNC(=O)COc1c(C)cc(Br)cc1C [compound 1570496]	84.5 % of Negative Control	47.1
Cc1ccccc1OCCSCc1nc2ccccc2[nH]1 [compound 1589778]	86.0 % of Negative Control	72.5
Clc1ccc(OCCSCc2nc3ccccc3[nH]2)cc1 [compound 1589789]	74.0 % of Negative Control	79.6
O=C1/C(=C/c2ccncc2)SC(=S)N1Nc1ccccc1 [compound 1636480]	86.8 % of Negative Control	67.7
CCCOc1ccc(CSc2nc3ccccc3[nH]2)cc1 [compound 1653621]	75.1 % of Negative Control	77.4
CC(=O)c1ccc(OCCOc2ccc(C#N)cc2)cc1 [compound 1713451]	106.4 % of Negative Control	41.1
CC(C)(c1ccc(O)cc1)c1ccc(Cl)cc1 [compound 1992009]	2.1 % of Negative Control	96.6
COc1ccc(CCNc2ncnc3scc(-c4cccs4)c23)cc1OC [compound 2008712]	97.9 % of Negative Control	68.9
O=C(NCc1ccco1)c1sc2ccccc2c1Cl [compound 2049334]	88.3 % of Negative Control	53.3
Cc1cc(C)c2sc(NN)nc2c1 [compound 2049855]	38.9 % of Negative Control	100.6
CCCCSc1nc2ccc(C)cc2[nH]1 [compound 2129690]	104.3 % of Negative Control	80.1
Cc1ccc(S(=O)(=O)Nc2cc(Sc3nc[nH]n3)c(O)c3ccccc23)c(C)c1 [compound 2133779]	3.5 % of Negative Control	98.3
Cc1nc(NC(=O)CCl)sc1C(=O)OCC(C)C [compound 2139195]	6.3 % of Negative Control	99.1
COc1ccc(NC(=O)CN2CCN(c3c(C)cccc3C)CC2)cc1 [compound 2200363]	71.8 % of Negative Control	64.6
c1nc(N2CCCCCC2)c2ccsc2n1 [compound 2238990]	79.6 % of Negative Control	57.0
CC1CCN(c2ncnc3sccc23)CC1 [compound 2238992]	70.0 % of Negative Control	73.6

Structure (SMILES)	Cytotoxicity: Relative Cell Viability (% of Negative Control) [1]	Yeast Inhibition: % Inhibition [2] [%]
Cc1nc(NCc2ccccc2)c2ccsc2n1 [compound 2238994]	75.7 % of Negative Control	84.9
Cc1nc(NC2CCCCC2)c2ccsc2n1 [compound 2239015]	75.4 % of Negative Control	45.4
O=c1/c(=C/c2ccc(F)cc2F)sc2nc3ccccc3n12 [compound 2354424]	81.4 % of Negative Control	88.9
FC(F)(F)c1cccc(N2CCN(c3ncnc4sccc34)CC2)c1 [compound 2497352]	96.2 % of Negative Control	92.5
CC(C)(C)NCC(O)COc1ccc(C23CC4CC(CC(C4)C2)C3)cc1 (stereo not shown) [compound 2769740]	2.7 % of Negative Control	101.5
NNc1nc2cc3c(cc2s1)OCCO3 [compound 2771030]	94.3 % of Negative Control	99.1
O=Cc1sc(=O)n(-c2ccccc2)c1Cl [compound 2793380]	5.7 % of Negative Control	78.0
O=S1(=O)CCC(NC(=S)SCc2ccccc2)C1 (stereo not shown) [compound 2831154]	24.3 % of Negative Control	48.2
Cc1ccc(N2C(=O)C=CC2=O)c([N+](=O)[O-])c1 [compound 2834581]	4.3 % of Negative Control	101.2
C=CCN(CC=C)CC(O)CN1c2ccccc2Sc2ccccc21 (stereo not shown) [compound 2896856]	5.4 % of Negative Control	43.9
Cc1ccc(N2C(=O)CC(Sc3ccccc3C(=O)O)C2=O)c(Br)c1 (stereo not shown) [compound 2919713]	94.3 % of Negative Control	67.2
ClC1(Cl)CC1Cn1cnc2ccccc21 (stereo not shown) [compound 2936975]	93.7 % of Negative Control	49.3
O=C1c2ccccc2S(=O)(=O)N1CC(O)COc1ccc(Cl)cc1Cl (stereo not shown) [compound 2943193]	90.5 % of Negative Control	57.4
Cc1ccc(N2C(=O)CC(Sc3ccccc3C(=O)N3CCOCC3)C2=O)cc1 (stereo not shown) [compound 2951953]	94.9 % of Negative Control	52.3
CCOC(=O)c1ccc(NC(=O)CC2Sc3ncnn3C2=O)cc1 (stereo not shown) [compound 2954695]	99.4 % of Negative Control	101.7
NS(=O)(=O)c1ccc(NC(=O)CSC2CC(=O)N(c3ccc(Br)cc3)C2=O)cc1 (stereo not shown) [compound 2974037]	102.2 % of Negative Control	90.7
CN(C)S(=O)(=O)N1CCN(CC(O)COc2ccc3cc(Br)ccc3c2)CC1 (stereo not shown) [compound 2981975]	88.7 % of Negative Control	70.4
CCn1c(CSc2ccccc2)nc2ccccc21 [compound 2992099]	99.2 % of Negative Control	59.0
ClC(Cl)(c1nnnn1-c1ccccc1)c1nnnn1-c1ccccc1 [compound 3090522]	90.6 % of Negative Control	87.7
